Measured values as given in US8404803B2, “Cancer-associated antigen analogue peptides and uses thereof” (Chugai Seiyaku Kabushiki Kaisha, priority 2005, dated 2013).
“And” between values parts separate entries of the source, which are not always exact repeats. Identical values can stand only once.

Legend:
Format in all cases: cell-based, human
[1] = tested on: CD4-positive/IFNγ-producing T cells; assay: Flow cytometry detection of CD4-positive/IFNγ-positive T cells in peptide-stimulated mononuclear cell samples; conditions: for CD4-positive/IFNγ expression-positive frequencies, mean ± standard deviation: epitope determination, patient's mononuclear cell samples (FIG. 16); for CD4+ IFNγ+ number of positive samples/tested samples: mononuclear cell samples cultured 48 hours with peptide and IL-2; for CD4+ IFNγ+ number of positive samples/tested samples / CD4+ IFNγ+ number of positive samples/tested samples × 100 (%): positive sample > mean of control + 2 × SD (OVCA10-MNC group, 1.378%); for frequency of CD4-positive/INFγ-positive cells, mean±standard deviation: all of the analyzed mononuclear cell samples (FIG. 11); for frequency of CD4-positive/IFNγ-positive T cells: FIGS. 9 and 10, IL-2 and analogue peptide added
Method: (§1) All operations concerning cell culture were performed aseptically. First, human peripheral mononuclear cell fractions (comprising T cells, B cells, macrophages and such; hereinafter referred to as “mononuclear cell samples”) were prepared from the blood samples by density gradient centrifugation. Next, these mononuclear cells were suspended at 1×10^5 cell/ml in complete media having the following composition: • Complete Medium: RPMI1640 culture medium (Gibco Laboratories Inc., Grand Island, N.Y.) to which 10% fetal bovine serum (Cell Culture Laboratories, Cleveland, Ohio), 0.2 mM L-glutamine, 100 U/mL penicillin, 100 μg/mL streptomycin (Gibco Laboratories Inc.), and 0.2 ng/mL recombinant human IL-2 (Dainippon Pharmaceutical Co., Tokyo, Japan) have been mixed.
(§2) Theses mononuclear cell samples were placed still in V-bottomed 96-well tissue culture plastic plates (Flow Laboratories Inc., Horsham, Pa.) in the presence and absence of peptides, and cultured for 48 hours at 37° C. in a CO2 culture apparatus (Sanyo Medica, Osaka, Japan).
(§3) A number of mouse-derived anti-human specific monoclonal antibodies with different fluorescences (hereinafter referred to as ‘monoclonal antibodies’) were used to simultaneously analyze by double-staining the CD markers CD4 and CD8, which are on the T cell membranes, and the cytokines within the T cells. As the monoclonal antibodies, products labeled with either fluorescent substance phycoerythrin (hereinafter ‘PE’) or fluorescein isothiocyanate (hereinafter ‘FITC’) were used (Miltenyi Biotec, Glandbach, Germany). For detection, a flow cytometry apparatus FACScan (Becton Dickinson) was used to measure the frequency of cells to which the monoclonal antibodies had bound. Positive cells are automatically detected by the flow cytometry apparatus.
(§4) Since positive cells cannot be identified after the cytokines have been secreted to the outside of the cells, detection was performed at a stage where the cytokines are inside the cells. Therefore, the Cytofix/Cytoperm Kit (Pharmingen, San Diego, Calif.) was used for the analysis, using methods recommended by the manufacturer and a positive control for detection recommended by the kit (Prussin C, Metcalfe D, Detection of intracytoplasmic cytokine using flow cytometry and directly conjugated anti-cytokine antibodies, J Immunol Meth. 188: 117-128, 1995). Specifically, brefeldin A (Pharmingen, San Diego, Calif.) was added at 0.7 μl/1 ml/well to stop protein production in the Golgi apparatus, and the peptide-stimulated mononuclear cell samples were treated at 37° C. for two hours. Next, the culture plates were placed on ice and the reaction was stopped by adding physiological saline at 4° C. The mononuclear cell samples were transferred into 15 ml tubes as though by washing with the physiological saline at 4° C., and were then centrifuged at 1600 rpm for ten minutes to remove the supernatant.
(§5) First, to dye CD4s on the cell surface, 10 μl of FITC-labeled mouse anti-human CD4 was added, with CD8 monoclonal antibody as a control, and this was reacted at 4° C. for 30 minutes. The cells were then separated with 0.5% bovine serum albumin/physiological saline at 4° C., then 0.5% bovine serum albumin/physiological saline at 4° C. was added thereto, and this was centrifuged at 1600 rpm for ten minutes at 4° C. to remove the supernatant.
(§6) Next, the mononuclear cell samples were fixed and their cell membranes were permeabilized. The cells were suspended in 250 μl of Cytofix/Cytoperm (Pharmingen) solution and reacted at 4° C. for 20 minutes. 10 μl of the aforementioned fluorescently labeled anti-IFNγ monoclonal antibody or anti-IL-4 monoclonal antibody was added to these mononuclear cell samples and reacted at 4° C. for 30 minutes. Then, the cells were separated by adding 0.5% bovine serum albumin/physiological saline at 4° C., and 0.5% BSA/PBS at 4° C. was further added thereto. After centrifugation at 1600 rpm for ten minutes at 4° C., the supernatant was removed. […]

[2] = tested on: CD4-positive/IL-4-producing T cells; assay: Flow cytometry detection of CD4-positive/IL-4-positive T cells in peptide-stimulated mononuclear cell samples; conditions: for CD4-positive/IL-4-positive frequencies, mean ± standard deviation: epitope determination, patient's mononuclear cell samples (FIG. 14); for CD4+ IL-4+ number of positive samples/tested samples: mononuclear cell samples cultured 48 hours with peptide and IL-2; for CD4+ IL-4+ number of positive samples/tested samples / CD4+ IL-4+ number of positive samples/tested samples × 100 (%): positive sample > mean of control + 2 × SD (OVCA10-MNC group, 1.148%); for frequency of CD4-positive/IL-4-positive cells, mean±standard deviation: all the analyzed mononuclear cell samples (FIG. 8); for frequency of CD4-positive/IL-4-positive T cells: FIGS. 6 and 7, IL-2 and analogue peptide added
Method: as §1, §2, §3, §4, §5, §6

[3] = tested on: CD4-positive T cells; assay: Analysis of the CD4-positive T cell epitope (T cells positive for IL-4 or IFNγ); conditions: peptides with ten amino acid residues reproducing the MUC16 primary sequence
Method: The results were recorded as: number of double staining-positive cells/total number of counted mononuclear cells ×100=positive cell frequency (%). Furthermore, peptide antigen-specific T cell reactions were determined to be positive when the individual frequencies of positive cells in the mononuclear cell samples were the same as or greater than the mean plus two standard deviations (mean+2SD) of the negative control group, where the negative control was a mononuclear cell sample group that had been stimulated with analogue peptide (OVCA10 stimulation). In addition, each of the peptide-stimulated groups were compared by using t-tests to measure the significant difference.
Next, to determine the T cell epitope (based not on the analogues but on the original sequence), the present inventors went back to the original amino acid sequence of the 11-times repeat sequences of MUC16 from which the 30 amino acid residue sequence: […] (SEQ ID NO: 45) common to OVCA11 and OVCA12 was derived. Furthermore, the sequence was divided into lots of ten amino acid residues to prepare OVCA101 (SEQ ID NO: 4), 102 (SEQ ID NO: 5), 103 (SEQ ID NO: 6), 104 (SEQ ID NO: 7), 105 (SEQ ID NO: 8), 106 (SEQ ID NO: 9), 107 (SEQ ID NO: 2), 108 (SEQ ID NO: 3), 109, 110, 111, 112, 113, 114, 115 (SEQ ID NO: 10) (FIG. 5), and T cells positive for IL-4 or IFNγ were detected using a method similar to the above.

[4] = typical example of flow cytometry

Sequence	CD4-positive/IFNγ expression-positive frequencies, mean ± standard deviation ([1]; peptide 15 μM) [%]	CD4+ IFNγ+ number of positive samples/tested samples [1]	CD4+ IFNγ+ number of positive samples/tested samples × 100 (%) [1] [%]	CD4-positive/IL-4-positive frequencies, mean ± standard deviation ([2]; peptide 15 μM) [%]	CD4+ IL-4+ number of positive samples/tested samples [2]	CD4+ IL-4+ number of positive samples/tested samples × 100 (%) [2] [%]	frequency of CD4-positive/INFγ-positive cells, mean±standard deviation ([1]; peptide 15 μM) [%]	frequency of CD4-positive/IFNγ-positive T cells [1, 4] [%]	frequency of CD4-positive/IL-4-positive cells, mean±standard deviation ([2]; peptide 15 μM) [%]	frequency of CD4-positive/IL-4-positive T cells [2, 4] [%]	recognized by CD4-positive T cells [3]	frequency of CD4-positive/IFNγ-producing T cells at the time of epitope determination ([1]; FIG. 16, peptide 15 μM)	frequency of CD4-positive/IFNγ-positive T cells at the time of epitope determination ([1]; typical example of flow cytometry, FIG. 15, IL-2 and peptide added) [%]	frequency of CD4-positive/IL-4-producing T cells at the time of epitope determination ([2]; FIG. 14, peptide 15 μM)	frequency of CD4-positive/IL-4-positive T cells at the time of epitope determination ([2]; typical example of flow cytometry, FIG. 13, IL-2 and peptide added) [%]	frequency of CD4-positive/IFNγ-producing T cells compared to groups to which OVCA10 was added ([1]; FIG. 11, peptide 15 μM, statistically significant difference)	frequency of CD4-positive/IL-4-producing T cells compared to groups to which OVCA10 was added ([2]; FIG. 8, peptide 15 μM, statistically significant difference)
GHTAPGPLLV (listed as Homo sapiens) [OVCA102]	0.532±0.545	1/14	7.1	0.231±0.309	0/14	0	–	–	–	–	–	–	–	–	–	–	–
ETTATGPLLV (listed as Homo sapiens) [OVCA104]	0.376±0.490	1/14	7.1	0.301±0.340	0/14	0	–	–	–	–	–	–	–	–	–	–	–
GPSAASPLLV (listed as Homo sapiens) [OVCA106]	0.641±1.082	2/14	14.3	0.649±1.337	2/14	14.3	–	–	–	–	–	–	–	–	–	–	–
GTSGTPASLPGHTAPGPLLV (listed as Homo sapiens) [OVCA10]	–	1/33	3.0	–	1/33	3.0	0.328±0.525	0.11	0.252±0.448	0.05	–	–	–	–	–	–	–
GPTTASPLLV (listed as Homo sapiens) [OVCA105]	0.379±0.497	1/14	7.1	0.243±0.358	1/14	0	–	–	–	–	–	–	–	–	–	–	–
LRYEENMRHP (listed as Homo sapiens) [OVCA115]	0.161±0.157	0/8	0	0.281±0.424	1/9	11.1	–	–	–	–	–	–	–	–	–	–	–
GHTAPVPLLI (listed as Homo sapiens) [OVCA101]	0.471±0.562	2/14	14.3	0.181±0.231	0/14	0	–	–	–	–	–	–	–	–	–	–	–
STPGTSTVHLGTSGTPASLP (listed as Homo sapiens) [OVCA9]	–	2/29	6.9	–	0/29	0	–	0.02	–	0.05	–	–	–	–	–	–	–
PFTLNFTITN (listed as Homo sapiens) [OVCA107]	7.626±12.448	3/8	37.5	8.036±12.870	5/9	55.6	–	–	–	–	recognized by CD4-positive T cells	High frequency cases could be detected	2.10	High frequency cases could be detected	6.32	–	–
RPIVPGPLLV (listed as Homo sapiens) [OVCA103]	0.331±0.467	1/14	7.1	0.211±0.269	0/14	0	–	–	–	–	–	–	–	–	–	–	–
PFTLNFTITNLRYEENMRHP (listed as Homo sapiens) [OVCA12]	–	13 of the 33 and 13/33	39.4	–	18 of the 33 and 18/33	54.5	5.071±10.315	0.28	5.263±9.059	0.57	–	–	–	–	–	higher	higher
LRYEENMRHPGSRKFNTTER (listed as Homo sapiens) [OVCA13]	–	0/6	0	–	0/6	0	–	–	–	–	–	–	–	–	–	–	–
